Laboratory results as given in patent publication US20250375417A1, “OREXIN RECEPTOR 2 (OX2R) AGONIST FOR USE IN NARCOLEPSY TYPE 1 (NT1)” (TAKEDA PHARMACEUTICAL COMPANY LIMITED, priority 2024, published 2025).
Marks after values point to notes of the source that are not given here.

Assays:
[1] = tested on: participants with NT1; test: SF-36 and EQ-5D-5L health-related quality of life, Phase 2 NT1 trial; assay type: in vivo, human
From the text: Health conditions such as mobility, self-care, usual activities, pain/discomfort, and/or anxiety/depression as related to NT1 can be assessed by the EQ-5D-5L assessment. The EQ-5D-5L is a standardized 5-item measure of health status developed by the EuroQol Group to provide a simple, generic measure of health for clinical and economic appraisal that has been used in a wide range of health conditions and treatments (Herdman et al. 2011; Janssen et al. 2013). The EQ-5D-5L consists of a descriptive system and the EuroQol visual analog scale (VAS). The descriptive system comprises 5 dimensions: mobility, self-care, usual activities, pain/discomfort, and anxiety/depression. The EuroQol VAS records the participant's self-rated health on a vertical VAS. This can be used as a quantitative measure of health outcome that reflects the participant's own judgment. The scores on these 5 dimensions can be presented as a health profile or can be converted to a single summary index number (utility) reflecting preferability compared with other health profiles.
Patient health self-assessments can be measured by the SF-36. The SF-36 is a 36-item, participant-reported survey of participant health. […] Similar to each scale, the component scores are also positively scored so that higher scores represent better health-related quality-of-life. […]

[2] = tested on: participants with NT1; test: Nocturnal polysomnography (PSG) sleep architecture, Phase 2 NT1 trial; assay type: in vivo, human
From the text: Polysomnography (PSG) was collected at baseline and after 27 and 54 days of treatment. Sleep was manually scored following AASM guidelines; sleep metrics were extracted then computed by whole night and by quarter-night. Continuous accelerometry (Empatica EmbracePlus watch) allowed assessment of sleep in a naturalistic manner at home. Daily sleep diaries were used to capture subjective reports. Mixed effects models were fit with treatment, quarter-night, visit, and their interactions as fixed effects and random intercepts per subject. A reference PSG dataset (Vilela M, et al. J Sleep Res 2024; e14216) from CHU Montpellier (49 clinical controls and 114 patients with NT1, all drug-free) was analyzed to establish DNS characteristics of NT1.

[3] = tested on: patients with NT1; design: species or system human; settings: in vivo

CCS(=O)(=O)N[C@@H]1[C@H](Cc2cccc(-c3cc(F)cc(F)c3)c2F)N(C(=O)C(C)(C)O)CC1(F)F [Compound A, N-{(2S,3R)-4,4-difluoro-1-(2-hydroxy-2-methylpropanoyl)-2-[(2,3′,5′-trifluoro[1,1′-biphenyl]-3-yl)methyl]pyrrolidin-3-yl}ethanesulfonamide]
SF-36 summary scores, change from baseline versus placebo ([1]; all Compound A doses (FIG. 22)): Statistically significant improvements | EQ-5D (index score and VAS), change from baseline versus placebo ([1]; all Compound A doses (FIG. 23)): Statistically significant improvements | PSG % of time in N1, change from baseline to week 8 ([2]; 7 mg QD): 2.90* % | PSG % of time in N2, change from baseline to week 8 ([2]; 7 mg QD): −6.10* % | PSG % of time in N3, change from baseline to week 8 ([2]; 7 mg QD): −0.12% | PSG % of time in REM, change from baseline to week 8 ([2]; 7 mg QD): −4.48* % | PSG % of time in WASO, change from baseline to week 8 ([2]; 7 mg QD): 7.81* % | PSG No. of awakenings, change from baseline to week 8 ([2]; 7 mg QD): 6.3* | PSG SOL, change from baseline to week 8 ([2]; 7 mg QD): -6.8 min | PSG TST, change from baseline to week 8 ([2]; 7 mg QD): −42.7* min | PSG WASO, change from baseline to week 8 ([2]; 7 mg QD): 38.1* min | PSG % of time in N1, change from baseline to week 8 ([2]; 0.5/0.5 mg): 1.13% | PSG % of time in N2, change from baseline to week 8 ([2]; 0.5/0.5 mg): −1.75% | PSG % of time in N3, change from baseline to week 8 ([2]; 0.5/0.5 mg): −0.27% | PSG % of time in REM, change from baseline to week 8 ([2]; 0.5/0.5 mg): 1.28% | PSG % of time in WASO, change from baseline to week 8 ([2]; 0.5/0.5 mg): −0.39% | PSG No. of awakenings, change from baseline to week 8 ([2]; 0.5/0.5 mg): −2.3 | PSG SOL, change from baseline to week 8 ([2]; 0.5/0.5 mg): 0.4 min | PSG TST, change from baseline to week 8 ([2]; 0.5/0.5 mg): -5.4 min | PSG WASO, change from baseline to week 8 ([2]; 0.5/0.5 mg): -3.6 min | PSG % of time in N1, change from baseline to week 8 ([2]; 2/2 mg): 1.76% | PSG % of time in N2, change from baseline to week 8 ([2]; 2/2 mg): 0.65% | PSG % of time in N3, change from baseline to week 8 ([2]; 2/2 mg): 0.45% | PSG % of time in REM, change from baseline to week 8 ([2]; 2/2 mg): −2.43% | PSG % of time in WASO, change from baseline to week 8 ([2]; 2/2 mg): −0.43% | PSG No. of awakenings, change from baseline to week 8 ([2]; 2/2 mg): 2.5 | PSG SOL, change from baseline to week 8 ([2]; 2/2 mg): -1.9 min | PSG TST, change from baseline to week 8 ([2]; 2/2 mg): 8.4 min | PSG WASO, change from baseline to week 8 ([2]; 2/2 mg): -2.4 min | PSG % of time in N1, change from baseline to week 8 ([2]; 2/5 mg): 3.55* % | PSG % of time in N2, change from baseline to week 8 ([2]; 2/5 mg): −1.69% | PSG % of time in N3, change from baseline to week 8 ([2]; 2/5 mg): −0.44% | PSG % of time in REM, change from baseline to week 8 ([2]; 2/5 mg): −4.08* % | PSG % of time in WASO, change from baseline to week 8 ([2]; 2/5 mg): 2.57% | PSG No. of awakenings, change from baseline to week 8 ([2]; 2/5 mg): 3.2 | PSG SOL, change from baseline to week 8 ([2]; 2/5 mg): -3.4 min | PSG TST, change from baseline to week 8 ([2]; 2/5 mg): -19.9 min | PSG WASO, change from baseline to week 8 ([2]; 2/5 mg): 11.0 min | REM sleep architecture per quarter night (in-clinic PSG) ([2]; week 8 (FIG. 6A)): shifted REM sleep from early to later in the night without reducing the total REM | Rate of transitions between REM and wake/N1 ([2]; week 8, except in the 0.5 mg/0.5 mg cohort (FIG. 6B)): reduced the rate of sleep/wake transitions early in the night | Improvement on CPAL total errors [3]: statistically significant across all doses | Improvement on ONB reaction time [3]: statistically significant across all doses | Improvement on iDSST-s number correct [3]: statistically significant across all doses
